According to patent EP3037527A1, “Sialyltransferase without CMP-dependent sialidase activity” (F. Hoffmann-La Roche AG, priority 2014, dated 2016):

How the values were obtained:
[1] = biological target: T1, α-2,6-sialyltransferase from rat liver (Rattus norvegicus, UniProt P13721); settings: each inhibitor tested at a concentration of 0.25 mM; cited from earlier work
T1 construct: host or cells: rat liver
T1 sequence (P13721 1-403): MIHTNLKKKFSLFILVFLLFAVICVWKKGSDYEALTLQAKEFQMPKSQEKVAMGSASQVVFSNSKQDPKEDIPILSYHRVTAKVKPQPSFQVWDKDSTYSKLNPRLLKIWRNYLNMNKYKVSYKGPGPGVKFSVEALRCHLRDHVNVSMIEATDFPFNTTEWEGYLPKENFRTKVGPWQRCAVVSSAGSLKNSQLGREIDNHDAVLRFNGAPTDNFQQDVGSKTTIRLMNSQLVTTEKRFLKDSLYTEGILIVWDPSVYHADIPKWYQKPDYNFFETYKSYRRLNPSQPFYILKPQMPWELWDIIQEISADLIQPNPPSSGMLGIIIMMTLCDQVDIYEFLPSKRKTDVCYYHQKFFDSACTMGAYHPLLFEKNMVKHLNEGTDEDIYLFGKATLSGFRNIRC

Δ89 hST6Gal-I = biological target: T2, Δ89 hST6Gal-I (Homo sapiens, UniProt P15907); test: Inhibition of sialidase activity of Δ89 hST6Gal-I by CTP; format: biochemical
T2 construct: Erythropoietin signal peptide (Epo) (N, cleaved yes); AP spacer (two amino acids) (N, cleaved yes); made in house; host or cells: HEK 293 cells (transient expression, secreted)
T2 sequence (P15907 90-406): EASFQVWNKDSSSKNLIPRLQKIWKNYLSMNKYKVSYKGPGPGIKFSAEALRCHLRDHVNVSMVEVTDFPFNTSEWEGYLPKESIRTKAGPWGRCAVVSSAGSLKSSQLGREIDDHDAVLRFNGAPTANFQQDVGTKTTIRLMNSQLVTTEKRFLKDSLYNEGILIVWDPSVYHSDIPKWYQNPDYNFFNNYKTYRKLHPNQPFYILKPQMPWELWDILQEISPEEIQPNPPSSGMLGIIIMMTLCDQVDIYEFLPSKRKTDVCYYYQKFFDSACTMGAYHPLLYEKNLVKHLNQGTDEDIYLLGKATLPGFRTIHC
Method: A highly galactosylated humanized monoclonal antibody IgG4 MAB was used in sialylation experiments. The reaction mixture contained IgG4 MAB (300 µg in 55 µL 35 mM sodium actetate/Tris buffer pH 7.0), the donor substrate CMP-NANA (150 µg in 50 µL water) and sialyltransferase (30 µg Δ89 hST6Gal-I in 20 mM potassium phosphate, 0.1 M NaCl, pH 6.5). The samples were incubated at 37°C for a defined time. To stop the reaction the samples were frozen at -20°C. For mass analysis 100 µL denaturing buffer (6 M guanidinium chloride) and 30 µL TCEP (= tris(2-carboxyethyl)phosphine; 0.1 mM, diluted in denaturing buffer) were added to the samples and the samples were incubated at 37°C for 1 h. The samples were buffered in electrospray medium [20% ACN (= acetonitrile), 1% FA (= […])] using pre-equilibrated illustra™ Nap5-Columns (GE-Healthcare). Samples were analyzed by electrospray ionization mass spectrometry and the content of G2+0SA, G2+1SA and G2+2SA N-glycans was determined. A Micromass Q-Tof Ultima and a Synapt G2 HDMS device (Waters UK) were used, the software used was MassLynx V 4.1. […]
The compound cytidine-5'-triphosphate (CTP) is a known potent inhibitor of sialyltransferases (Scudder PR & Chantler EN BBA 660 (1981) 136-141). […] At different times samples were taken and the content of G2+0SA, G2+1SA and G2+2SA was determined by mass spectrometry. […]

degradation of G2+2SA caused by the sialidase activity (Δ89 hST6Gal-I; CTP 0.67 mM, compared to inhibitor-free conditions)	G2+2SA still present (Δ89 hST6Gal-I; after 72 h of incubation, CTP added after 7 h, final concentration 0.67 mM)	SMILES	inhibition of α-2,6-sialyltransferase [1]
–	–	Nc1ccn([C@@H]2O[C@H](CO)[C@@H](O)[C@H]2OP(=O)(O)O)c(=O)n1 [2'-CMP]	40%
–	–	Nc1ccn([C@@H]2O[C@H](CO)[C@@H](OP(=O)(O)O)[C@H]2O)c(=O)n1 [3'-CMP]	39%
–	–	Nc1ccn([C@@H]2O[C@H](COP(=O)(O)O)[C@@H](O)[C@H]2O)c(=O)n1 [5'-CMP, Cytidine monophosphate]	71%
significantly reduced	73%	Nc1ccn([C@@H]2O[C@H](COP(=O)(O)OP(=O)(O)OP(=O)(O)O)[C@@H](O)[C@H]2O)c(=O)n1 [CTP, cytidine-5'-triphosphate]	–
–	–	Nc1ccn([C@@H]2O[C@H](CO)[C@@H](O)[C@H]2O)c(=O)n1 [Cytidine]	70%
